# Where a name gives a salt, the structure may show the parent alone.
# Test system: clot lysis (fibrinolysis) in diluted human citrated plasma, tPA-induced
# Assay: Plasma-based clot lysis assay (5%)
# Assay type: biochemical
# Conditions: human citrated platelet-poor plasma 5%, fibrinogen 3 μM, CaCl2 10 mM, tPA 0.2 nM, 37° C., OD at 405 nm
# Protocol: B-2. Plasma-based Clot Lysis Assay (5%)
# The clot-lysis test system configures the kinetics of clot formation and degradation in vitro and allows quantifying modulation of the process by selected test compounds.
# The test compounds were dissolved in 1% acetic acid and further complemented with an equal volume of DMSO. The resulting stock solutions were serially diluted in 0.5% acetic acid/50% DMSO. 1 μL aliquots of these solutions were placed into 384 well microplates (Greiner, black, transparent bottom), followed by 30 μL of diluted human citrated plasma (platelet-poor, final concentration: 5%; supplemented with fibrinogen, final concentration: 3 μM; dilution buffer: 20 mM HEPES, 150 mM NaCl, 0.01% Brij (pH 7)). The reactions were started by addition of 20 μL of CaCl2 (final concentration: 10 mM), and tPA (tissue plasminogen activator, final concentration: 0.2 nM) in dilution buffer, followed by an additional volume of 20 μL dilution buffer for improved mixing. The reactions were incubated at 37° C. […] IC50 values were determined by comparing the resulting time courses with the time course of a blank control reaction.
row,IC50 [nM],Compound
1,41,"Cc1cc(C(F)(F)F)ccc1-c1noc(-c2cnn3c(C4CCNCC4)cc(=O)[nH]c23)n1 [Example 139, 3-{3-[2-Methyl-4-(trifluoromethyl)phenyl]-1,2,4-oxadiazol-5-yl}-7-(piperidin-4-yl)pyrazolo[1,5-a]pyrimidin-5(4H)-one hydrochloride]"
2,150,"CC1(C)CCN(Cc2cnn3c(C4CCNCC4)cc(=O)[nH]c23)C1 [Example 324, 3-[(3,3-dimethylpyrrolidin-1-yl)methyl]-7-(piperidin-4-yl)pyrazolo[1,5-a]pyrimidin-5(4H)-one hydrochloride]"
3,35,"O=c1cc(C2CCNCC2)n2ncc(-c3nc(-c4cccc(Cl)c4F)no3)c2[nH]1 [Example 132, 3-[3-(3-Chloro-2-fluorophenyl)-1,2,4-oxadiazol-5-yl]-7-(piperidin-4-yl)pyrazolo[1,5-a]pyrimidin-5(4H)-one hydrochloride]"
4,76,"O=c1cc(C2CCNCC2)n2ncc(-c3nc(C4CCC4)no3)c2[nH]1 [Example 108, 3-(3-cyclobutyl-1,2,4-oxadiazol-5-yl)-7-(piperidin-4-yl)pyrazolo[1,5-a]pyrimidin-5(4H)-one]"
5,35,"Cc1cccc(-c2noc(-c3cnn4c(C5CCNCC5)cc(=O)[nH]c34)n2)c1 [Example 120, 3-[3-(3-Methylphenyl)-1,2,4-oxadiazol-5-yl]-7-(piperidin-4-yl)pyrazolo[1,5-a]pyrimidin-5 (4H)-one hydrochloride]"
6,19,"O=c1cc(C2CCNCC2)n2ncc(-c3nnc(C4(c5ccc(Cl)cc5)CC4)o3)c2[nH]1 [Example 278, 3-{5-[1-(4-chlorophenyl)cyclopropyl]-1,3,4-oxadiazol-2-yl}-7-(piperidin-4-yl)pyrazolo[1,5-a]pyrimidin-5(4H)-one hydrochloride]"
7,61,"Cc1nn2c(C3CCNCC3)cc(=O)[nH]c2c1C(=O)OCC(C)(F)F [Example 461, 2,2-difluoropropyl 2-methyl-5-oxo-7-(piperidin-4-yl)-4,5-dihydropyrazolo[1,5-a]pyrimidine-3-carboxylate hydrochloride]"
8,770,"O=c1cc(C2CCNCC2)n2ncc(-c3ccccc3F)c2[nH]1 [Example 56, 3-(2-Fluorophenyl)-7-(piperidin-4-yl)pyrazolo[1,5-a]pyrimidin-5(4H)-one hydrochloride]"
9,49,"COCCCNC(=O)c1cnn2c(C3CCNCC3)cc(=O)[nH]c12 [Example 88, N-(3-methoxypropyl)-5-oxo-7-(piperidin-4-yl)-4,5-dihydropyrazolo[1,5-a]pyrimidine-3-carboxamide hydrochloride]"
10,45,"O=c1cc(C2CCNCC2)n2ncc(-c3nc(-c4c(Cl)cc(C(F)(F)F)cc4Cl)no3)c2[nH]1 [Example 150, 3-{3-[2,6-Dichloro-4-(trifluoromethyl)phenyl]-1,2,4-oxadiazol-5-yl}-7-(piperidin-4-yl)pyrazolo[1,5-a]pyrimidin-5(4H)-one hydrochloride]"
11,39,"O=c1cc(C2CCNCC2)n2ncc(-c3nc(-c4cccc(Cl)n4)no3)c2[nH]1 [Example 133, 3-[3-(6-Chloropyridin-2-yl)-1,2,4-oxadiazol-5-yl]-7-(piperidin-4-yl)pyrazolo[1,5-a]pyrimidin-5(4H)-one hydrochloride]"
12,95,"COCC(C)(C)c1noc(-c2cnn3c(C4CCNCC4)cc(=O)[nH]c23)n1 [Example 105, 3-[3-(1-methoxy-2-methylpropan-2-yl)-1,2,4-oxadiazol-5-yl]-7-(piperidin-4-yl)pyrazolo[1,5-a]pyrimidin-5(4H)-one]"
13,31,"CC(C)(c1ccccc1)c1noc(-c2cnn3c(C4CCNCC4)cc(=O)[nH]c23)n1 [Example 223, 3-[3-(2-phenylpropan-2-yl)-1,2,4-oxadiazol-5-yl]-7-(piperidin-4-yl)pyrazolo[1,5-a]pyrimidin-5(4H)-one hydrochloride]"
14,29,"COc1ccc(C2(c3nc(-c4cnn5c(C6CCNCC6)cc(=O)[nH]c45)no3)CC2)cc1 [Example 245, 3-{5-[1-(4-methoxyphenyl)cyclopropyl]-1,2,4-oxadiazol-3-yl}-7-(piperidin-4-yl)pyrazolo[1,5-a]pyrimidin-5(4H)-one hydrochloride]"
15,110,"Cc1ccc(-c2noc(-c3cnn4c(C5CCNCC5)cc(=O)[nH]c34)n2)c(C(F)(F)F)c1 [Example 128, 3-{3-[4-Methyl-2-(trifluoromethyl)phenyl]-1,2,4-oxadiazol-5-yl}-7-(piperidin-4-yl)pyrazolo[1,5-a]pyrimidin-5(4H)-one hydrochloride]"
16,38,"Cc1ccc(-c2noc(-c3cnn4c(C5CCNCC5)cc(=O)[nH]c34)n2)cc1F [Example 117, 3-[3-(3-Fluoro-4-methylphenyl)-1,2,4-oxadiazol-5-yl]-7-(piperidin-4-yl)pyrazolo[1,5-a]pyrimidin-5(4H)-one hydrochloride]"
17,85,"O=c1cc(C2CCNCC2)n2ncc(-c3nnc(CN4CCCCC4)o3)c2[nH]1 [Example 291, 7-(piperidin-4-yl)-3-[5-(piperidin-1-ylmethyl)-1,3,4-oxadiazol-2-yl]pyrazolo[1,5-a]pyrimidin-5(4H)-one hydrochloride]"
18,36,"Cc1nn2c(C3CCNCC3)cc(=O)[nH]c2c1C(=O)N1CCSCC1 [Example 397, 2-methyl-7-(piperidin-4-yl)-3-(thiomorpholin-4-ylcarbonyl)pyrazolo [1,5-a]pyrimidin-5(4H)-one hydrochloride]"
19,19,"CS(=O)(=O)c1ccc(-c2cnn3c(C4CCNCC4)cc(=O)[nH]c23)cc1 [Example 55, 3-[4-(Methylsulfonyl)phenyl]-7-(piperidin-4-yl)pyrazolo[1,5-a]pyrimidin-5(4H)-one hydrochloride]"
20,120,"O=c1cc(C2CCNCC2)n2ncc(CN3CCS(=O)(=O)CC3)c2[nH]1 [Example 345, 3-[(1,1-dioxidothiomorpholin-4-yl)methyl]-7-(piperidin-4-yl)pyrazolo[1,5-a]pyrimidin-5 (4H)-one hydrochloride]"
21,38,"O=c1cc(C2CCNCC2)n2ncc(-c3nc(-c4cccc(OC(F)(F)F)c4)no3)c2[nH]1 [Example 124, 7-(Piperidin-4-yl)-3-{3-[3-(trifluoromethoxy)phenyl]-1,2,4-oxadiazol-5-yl}pyrazolo[1,5-a]pyrimidin-5(4H)-one hydrochloride]"
22,17,"COc1c(F)cc(Cc2nnc(-c3cnn4c(C5CCNCC5)cc(=O)[nH]c34)o2)cc1F [Example 444, 3-[5-(3,5-difluoro-4-methoxybenzyl)-1,3,4-oxadiazol-2-yl]-7-(piperidin-4-yl)pyrazolo[1,5-a]pyrimidin-5(4H)-one hydrochloride]"
23,35,"O=c1cc(C2CCNCC2)n2ncc(-c3nc(Cc4ccc(F)cc4Cl)no3)c2[nH]1 [Example 195, 3-[3-(2-chloro-4-fluorobenzyl)-1,2,4-oxadiazol-5-yl]-7-(piperidin-4-yl)pyrazolo[1,5-a]pyrimidin-5(4H)-one hydrochloride]"
24,34,"Cc1nn2c(C3CCNCC3)cc(=O)[nH]c2c1C(=O)N1CCCC(C(C)C)C1 (stereo not drawn) [Example 408, 3-[(3-isopropyl-piperidin-1-yl)carbonyl]-2-methyl-7-(piperidin-4-yl) pyrazolo[1,5-a] pyrimidin-5(4H)-one hydrochloride]"

# Source: US10118930B2, “Piperidinylpyrazolopyrimidinones and their use” (BAYER PHARMA AKTIENGESELLSCHAFT, priority 2015, dated 2018)
